Measured values from PMC12189828, “Substitution of Proline Residues by 4-Fluoro-L-Proline Affects the Mechanism of the Proline-Rich Antimicrobial Peptide Api137” (Antibiotics, 2025).
Where a SMILES comes first, the peptide text is derived from it. [ ]: non-standard residue; d: D form. The star is where a group is joined. Orn(α-tetramethylguanidino) = CN(C)C(=N[C@@H](CCCN)C(=O)*)N(C)C; Pro(trans-4-F) = O=C(O)[C@@H]1C[C@@H](F)CN1; Pro(cis-4-F) = O=C(O)[C@@H]1C[C@H](F)CN1

How the values were obtained:
[1] = tested on: E. coli RN31; assay: Growth inhibition of E. coli RN31 during 90 min exponential growth phase; format: cell-based, Escherichia coli; details: for reduction of bacterial growth vs untreated control: E. coli RN31, 33% TSB, peptide 8 µg/mL, OD600, two biological replicates (n = 2)
Procedure: The following steps were performed on ice. Cells were harvested by centrifugation (4000× g, 4 °C, 25 min), washed with TICO buffer (20 mmol/L Hepes-KOH, pH 7.6, 6 mmol/L MgAc2, 30 mmol/L KAc), centrifuged (4000× g, 25 min, 4 °C), and stored at −80 °C. The cell pellet was suspended in TICO buffer (500 µL) and mixed with silica beads (zirconium glass pellets, 100 µm diameter; Carl Roth; Karlsruhe, Germany) to lyse the cells on a FastPrep-24^TM 5G (MP Biomedicals, Solon, OH, USA) using three disruption cycles (30 s, 6.0 m/s) interrupted by 1 min of incubation on ice after each cycle. Cell debris was removed by centrifugation (5000× g, 4 °C, 5 min), the supernatant was transferred to a new reaction tube, centrifuged (20,000× g, 4 °C, 20 min), the absorbance was recorded at 260 nm on a NanoPhotometer® NP80, and the sample was stored at −80 °C. […]

[2] = tested on: 50S subunit assembly / 70S ribosome in E. coli RN31; assay: Ribosome profile analysis (RPA), sucrose gradient of E. coli RN31 lysate; format: cell-based, Escherichia coli; details: 90 min; for RPA [pre-50S formation]: E. coli RN31, 33% TSB, peptide 8 µg/mL, 5–25% sucrose gradient, n = 2 (Api137 n = 7)
Procedure: E. coli RN31 was grown in 33% TSB (37 °C, 200 rpm) from a starting OD600 of 0.05 to an OD600 of 0.2, measured on a NanoPhotometer® (NP80; Implen; Westlake Village, CA, USA), and divided into subcultures that were inoculated with a peptide ([…]) before being cultured for 90 min (37 °C, 200 rpm). The following steps were performed on ice. Cells were harvested by centrifugation (4000× g, 4 °C, 25 min), washed with TICO buffer (20 mmol/L Hepes-KOH, pH 7.6, 6 mmol/L MgAc2, 30 mmol/L KAc), centrifuged (4000× g, 25 min, 4 °C), and stored at −80 °C. The cell pellet was suspended in TICO buffer (500 µL) and mixed with silica beads (zirconium glass pellets, 100 µm diameter; Carl Roth; Karlsruhe, Germany) to lyse the cells on a FastPrep-24^TM 5G (MP Biomedicals, Solon, OH, USA) using three disruption cycles (30 s, 6.0 m/s) interrupted by 1 min of incubation on ice after each cycle. Cell debris was removed by centrifugation (5000× g, 4 °C, 5 min), the supernatant was transferred to a new reaction tube, centrifuged (20,000× g, 4 °C, 20 min), the absorbance was recorded at 260 nm on a NanoPhotometer® NP80, and the sample was stored at −80 °C.
A 5% (w/v) sucrose solution (6.5 mL) in TICO buffer containing 2-mercaptoethanol (4 mmol/L) was poured into an open-top centrifuge tube (13.2 mL, 14 × 89 mm, Beckman Coulter) and bottomed with a 25% (w/v) sucrose solution (6.5 mL) in TICO buffer containing 2-mercaptoethanol (4 mmol/L) using a cannula. The tube was sealed with parafilm and placed horizontally at 4 °C for 3 h and vertically at 4 °C for 30 min. A portion of the upper layer (550 µL) was replaced by lysate (500 µL, A260 = 30) and centrifuged using a swing-out rotor (SW 41 Ti, 52,500× g, 4 °C, 19 h) without a brake. The contents were transferred from bottom-up to obtain equal volumes in all wells of a black 96-well plate with a flat bottom (96 Well PP black Greiner Bio-One GmbH, Frickenhausen, Germany) using the Äkta Purifier 10 system, and absorbance was recorded at a wavelength of 254 nm. Fluorescence was measured in the plate using the PARADIGM at excitation (λex) and emission (λem) wavelengths of 485 nm and 535 nm for eGFP and 585 nm and 635 nm, respectively, for mCherry and normalized to the 70S ribosome peak (set to 100%).

[3] = tested on: in vitro expression of sfGFP in the presence of RF1; assay: In vitro transcription-translation (iTT) assay of sfGFP in the presence of RF1; format: biochemical; details: peptide 5 µmol/L, RF1, 37 °C, 2 h, fluorescence, normalized to absence of PrAMPs, n = 3
Procedure: The sfGFP expression analysis relied on the NEB PureExpress Delta RF123 Kit (New England Biolabs, Frankfurt, Germany). The DNA template encoding sfGFP with a UAG stop codon was amplified from the pY71sfGFP vector by PCR using the primers sfGFP fwd ([…]) and sfGFP rev ([…]). The release factor RF1 of the kit was diluted 50-fold (v/v) in 1× Pure System Buffer (PSB, 1 mol/L magnesium acetate, 0.5 mol/L K3PO4 (pH 7.3), 1 mol/L potassium glutamate, 1 mol/L NH4Cl, 0.5 mol/L CaCl2, 1 mol/L spermidine, 0.1 mol/L putrescine, 0.1 mol/L DTT). sfGFP expression was performed in a freshly prepared mixture of kit solution A (2 µL), kit solution B (1.5 µL), 50-fold diluted RF1 (0.5 µL), sfGFP template (0.1325 pmol, 35 ng) or water as control (0.25 µL), PSB (0.25 µL), and a PrAMP (50 or 0 µmol/L) dissolved in water (0.5 µL). The reaction mixture was transferred to a black 384-well plate (flat bottom, PS, 784900, Greiner Bio-One GmbH), covered with a lid, and incubated (37 °C, 2 h) in a microplate reader (Gemini EM, Molecular Devices, San Jose, CA, USA). Fluorescence was recorded every 10 min (λex = 485 nm, λem = 535 nm).

CC[C@H](C)[C@H](NC(=O)[C@H](Cc1ccc(O)cc1)NC(=O)[C@@H](NC(=O)[C@@H]1CCCN1C(=O)[C@H](CCCNC(=N)N)NC(=O)[C@H](CC(N)=O)NC(=O)[C@H](CC(N)=O)NC(=O)[C@H](CCCN)N=C(N(C)C)N(C)C)C(C)C)C(=O)N1CCC[C@H]1C(=O)N[C@@H](CCCNC(=N)N)C(=O)N1CCC[C@H]1C(=O)N[C@@H](CCCNC(=N)N)C(=O)N1C[C@@H](F)C[C@H]1C(=O)N1CCC[C@H]1C(=O)N[C@@H](Cc1c[nH]cn1)C(=O)N1CCC[C@H]1C(=O)N[C@@H](CCCNC(=N)N)C(=O)N[C@@H](CC(C)C)C(=O)O [Api843] ({Orn(α-tetramethylguanidino)}-NNRPVYIPRPR[Pro(cis-4-F)]PHPRL-OH)
reduction of bacterial growth vs untreated control ([1]; 90 min): 56% | RPA [pre-50S formation] [2]: yes | Residual iTT (sfGFP expression relative to no PrAMP) [3]: 28 ± 3.2%

CC[C@H](C)[C@H](NC(=O)[C@H](Cc1ccc(O)cc1)NC(=O)[C@@H](NC(=O)[C@@H]1CCCN1C(=O)[C@H](CCCNC(=N)N)NC(=O)[C@H](CC(N)=O)NC(=O)[C@H](CC(N)=O)NC(=O)[C@H](CCCN)N=C(N(C)C)N(C)C)C(C)C)C(=O)N1C[C@@H](F)C[C@H]1C(=O)N[C@@H](CCCNC(=N)N)C(=O)N1CCC[C@H]1C(=O)N[C@@H](CCCNC(=N)N)C(=O)N1CCC[C@H]1C(=O)N1CCC[C@H]1C(=O)N[C@@H](Cc1c[nH]cn1)C(=O)N1CCC[C@H]1C(=O)N[C@@H](CCCNC(=N)N)C(=O)N[C@@H](CC(C)C)C(=O)O [Api845] ({Orn(α-tetramethylguanidino)}-NNRPVYI[Pro(cis-4-F)]RPRPPHPRL-OH)
reduction of bacterial growth vs untreated control ([1]; 90 min): 62% | RPA [pre-50S formation] [2]: yes | Residual iTT (sfGFP expression relative to no PrAMP) [3]: 26 ± 5.7%

CC[C@H](C)[C@H](NC(=O)[C@H](Cc1ccc(O)cc1)NC(=O)[C@@H](NC(=O)[C@@H]1CCCN1C(=O)[C@H](CCCNC(=N)N)NC(=O)[C@H](CC(N)=O)NC(=O)[C@H](CC(N)=O)NC(=O)[C@H](CCCN)N=C(N(C)C)N(C)C)C(C)C)C(=O)N1CCC[C@H]1C(=O)N[C@@H](CCCNC(=N)N)C(=O)N1C[C@H](F)C[C@H]1C(=O)N[C@@H](CCCNC(=N)N)C(=O)N1CCC[C@H]1C(=O)N1CCC[C@H]1C(=O)N[C@@H](Cc1c[nH]cn1)C(=O)N1CCC[C@H]1C(=O)N[C@@H](CCCNC(=N)N)C(=O)N[C@@H](CC(C)C)C(=O)O [Api842] ({Orn(α-tetramethylguanidino)}-NNRPVYIPR[Pro(trans-4-F)]RPPHPRL-OH)
reduction of bacterial growth vs untreated control ([1]; 90 min): 49% | RPA [pre-50S formation] [2]: reduced | Residual iTT (sfGFP expression relative to no PrAMP) [3]: 31 ± 0.7%

CC[C@H](C)[C@H](NC(=O)[C@H](Cc1ccc(O)cc1)NC(=O)[C@@H](NC(=O)[C@@H]1CCCN1C(=O)[C@H](CCCNC(=N)N)NC(=O)[C@H](CC(N)=O)NC(=O)[C@H](CC(N)=O)NC(=O)[C@H](CCCN)N=C(N(C)C)N(C)C)C(C)C)C(=O)N1CCC[C@H]1C(=O)N[C@@H](CCCNC(=N)N)C(=O)N1CCC[C@H]1C(=O)N[C@@H](CCCNC(=N)N)C(=O)N1CCC[C@H]1C(=O)N1CCC[C@H]1C(=O)N[C@@H](Cc1c[nH]cn1)C(=O)N1C[C@H](F)C[C@H]1C(=O)N[C@@H](CCCNC(=N)N)C(=O)N[C@@H](CC(C)C)C(=O)O [Api850] ({Orn(α-tetramethylguanidino)}-NNRPVYIPRPRPPH[Pro(trans-4-F)]RL-OH)
reduction of bacterial growth vs untreated control ([1]; 90 min): 84% | OD600 of treated culture after 90 min ([1]; E. coli RN31, peptide 8 µg/mL, 90 min, initial OD600 = 0.226 ± 0.006 at 0 min): 0.333 ± 0.002 | cell count relative to the initial cell count ([1]; E. coli RN31, peptide 8 µg/mL, 90 min vs 0 min (OD600)): ~ 140% | RPA [pre-50S formation] [2]: yes | ribosomal profile, pre-50S peak ([2]; E. coli RN31, adjusted peptide concentration 4 µg/mL): reduced the area of the pre-50S peak | Residual iTT (sfGFP expression relative to no PrAMP) ([3]; listed as 4R-Fpr16): 28% | Residual iTT (sfGFP expression relative to no PrAMP) ([3]; listed as Pro16 4R-Fpr (trans)): 28 ± 0.7%

CC[C@H](C)[C@H](NC(=O)[C@H](Cc1ccc(O)cc1)NC(=O)[C@@H](NC(=O)[C@@H]1CCCN1C(=O)[C@H](CCCNC(=N)N)NC(=O)[C@H](CC(N)=O)NC(=O)[C@H](CC(N)=O)NC(=O)[C@H](CCCN)N=C(N(C)C)N(C)C)C(C)C)C(=O)N1C[C@H](F)C[C@H]1C(=O)N[C@@H](CCCNC(=N)N)C(=O)N1CCC[C@H]1C(=O)N[C@@H](CCCNC(=N)N)C(=O)N1CCC[C@H]1C(=O)N1CCC[C@H]1C(=O)N[C@@H](Cc1c[nH]cn1)C(=O)N1CCC[C@H]1C(=O)N[C@@H](CCCNC(=N)N)C(=O)N[C@@H](CC(C)C)C(=O)O [Api846] ({Orn(α-tetramethylguanidino)}-NNRPVYI[Pro(trans-4-F)]RPRPPHPRL-OH)
reduction of bacterial growth vs untreated control ([1]; 90 min): 34% | RPA [pre-50S formation] [2]: no | 70S peak (area) relative to untreated control ([2]; E. coli RN31, peptide 8 µg/mL, sucrose gradient profile): ~ 45% | Residual iTT (sfGFP expression relative to no PrAMP) [3]: 33 ± 3.5%
